# Measurements reported in ChEMBL document CHEMBL1135558, “Chemical modification of reveromycin A and its biological activities” (Bioorg Med Chem Lett, 2002).
# Key:
# [1] = biological target: T1, Isoleucyl-tRNA synthetase (Rattus norvegicus, UniProt O35880); test: Inhibitory concentration against Isoleucyl-tRNA synthetase (IleRS) activity
# T1 sequence (O35880 whole entry): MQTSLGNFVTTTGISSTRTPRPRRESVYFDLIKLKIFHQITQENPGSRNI
# NRK [2] = test: In vitro inhibition of protein synthesis in srcts-NRK cell at 1 ug/mL; type: functional; conditions: Rattus norvegicus
# NRK [3] = test: Morphological reversion of srcts-NRK cells concentration at 100 ug/mL; type: functional, Rattus norvegicus
# NRK [4] = test: Morphological reversion of src-transformed-NRK cells at 20 ug/mL; type: functional, Rattus norvegicus
# NRK [5] = test: Morphological reversion of src-transformed-NRK cells at 50 ug/mL; type: functional
# NRK [6] = test: Morphological reversion of src-transformed-NRK cells at 10 ug/mL; type: functional, Rattus norvegicus
# NRK [7] = test: Morphological reversion of src-transformed-NRK cells at 5 ug/mL; type: functional, Rattus norvegicus
# NRK [8] = test: In vitro inhibition of protein synthesis in src-transformed-NRK cell at 1 ug/mL; type: functional; conditions: Rattus norvegicus
# NRK [9] = test: Morphological reversion of src-transformed-NRK cells at 0.1 ug/mL; type: functional, Rattus norvegicus
# NRK [10] = test: Morphological reversion of src-transformed-NRK cells at 2 ug/mL; type: functional, Rattus norvegicus
# NRK [11] = test: Morphological reversion of src-transformed-NRK cells at 1 ug/mL; type: functional, Rattus norvegicus
# NRK [12] = test: Morphological reversion of src-transformed-NRK cells at 5 ug/mL; 20-50; type: functional, Rattus norvegicus
SMILES,IC50 [1],inhibition at 1 µg/mL (NRK [2]),Reversion (NRK [3]),Reversion (NRK [4]),Reversion (NRK [5]),Reversion (NRK [6]),Reversion (NRK [7]),inhibition at 1 µg/mL (NRK [8]),Reversion (NRK [9]),Reversion (NRK [10]),Reversion (NRK [11]),Reversion (NRK [12])
CCCC[C@]1([C@@H](O)/C=C/C(C)=C/C(=O)O)CC[C@]2(CC[C@H](C)[C@@H](C/C=C(C)/C=C/[C@H](O)[C@@H](C)/C=C/C(=O)O)O2)O1,< 1780 nM,< 20%,<20%,–,–,–,–,–,–,–,–,–
CCCC[C@@]1(OC)CC[C@]2(CC[C@H](C)[C@@H](C/C=C(C)/C=C/[C@H](O)[C@@H](C)/C=C/C(=O)O)O2)O[C@H]1/C=C/C(C)=C/C(=O)O,44.4 nM,> 80%,>80%,50%,>80%,50%,–,–,–,–,–,–
CCCC[C@@]1(OC(=O)CCC(=O)O)CC[C@]2(CC[C@H](C)[C@@H](C/C=C(C)/C=C/[C@H](OC(C)=O)[C@@H](C)/C=C/C(=O)O)O2)O[C@H]1/C=C/C(C)=C/C(=O)O,< 1420 nM,–,>80%,>80%,>80%,50%,<20%,< 20%,–,–,–,–
CCCC[C@@]1(OC(=O)CCC(=O)OC)CC[C@]2(CC[C@H](C)[C@@H](C/C=C(C)/C=C/[C@H](O)[C@@H](C)/C=C/C(=O)OC)O2)O[C@H]1/C=C/C(C)=C/C(=O)O,1450 nM,< 20%,>80%,–,–,>80%,>80%,–,20%,>80%,>80%,–
CCCC[C@@]1(OC(=O)CCC(=O)O)CC[C@]2(CC[C@H](C)[C@@H](C/C=C(C)/C=C/[C@H](OC)[C@@H](C)/C=C/C(=O)O)O2)O[C@H]1/C=C/C(C)=C/C(=O)O,245 nM,50%,<20%,–,–,–,–,–,–,–,–,–
CCCC[C@]1([C@H](/C=C/C(C)=C/C(=O)O)OC)CC[C@]2(CC[C@H](C)[C@@H](C/C=C(C)/C=C/[C@H](O)[C@@H](C)/C=C/C(=O)O)O2)O1,< 1740 nM,< 20%,<20%,–,–,–,–,–,–,–,–,–
CCCC[C@@]1(OC(=O)CCC(=O)O)CC[C@]2(CC[C@H](C)[C@@H](CCC(C)CC[C@H](O)[C@@H](C)CCC(=O)O)O2)O[C@H]1CCC(C)CC(=O)O (stereo partly drawn),< 1490 nM,< 20%,<20%,–,–,–,–,–,–,–,–,–
CCCC[C@@]1(O)CC[C@]2(CC[C@H](C)[C@@H](C/C=C(C)/C=C/[C@H](O)[C@@H](C)/C=C/C(=O)O)O2)O[C@H]1/C=C/C(C)=C/C(=O)O,74.4 nM,> 80%,<20%,–,–,–,–,–,–,–,–,–
CCCC[C@@]1(OC(=O)CCC(=O)OC)CC[C@]2(CC[C@H](C)[C@@H](C/C=C(C)/C=C/[C@H](O)[C@@H](C)/C=C/C(=O)OC)O2)O[C@H]1/C=C/C(C)=C/C(=O)OC,< 1420 nM,< 20%,<20%,–,–,–,–,–,–,–,–,–
CCCC[C@@]1(OCSC)CC[C@]2(CC[C@H](C)[C@@H](C/C=C(C)/C=C/[C@H](O)[C@@H](C)/C=C/C(=O)O)O2)O[C@H]1/C=C/C(C)=C/C(=O)OC,< 1580 nM,< 20%,<20%,–,–,–,–,–,–,–,–,–
CCCC[C@@]1(OCSC)CC[C@]2(CC[C@H](C)[C@@H](C/C=C(C)/C=C/[C@H](O)[C@@H](C)/C=C/C(=O)O)O2)O[C@H]1/C=C/C(C)=C/C(=O)O,353 nM,> 80%,>80%,–,50%,<20%,–,–,–,–,–,–
CCCC[C@@]1(OC(=O)CCC(=O)O)CC[C@]2(CC[C@H](C)[C@@H](C/C=C(C)/C=C/[C@H](O)[C@@H](C)/C=C/C(=O)O)O2)O[C@H]1/C=C/C(C)=C/C(=O)O [REVEROMYCIN A],1.97 nM,> 80%,>80%,>80%,>80%,50%,–,–,–,<20%,–,20%
CCCC[C@]1([C@H](/C=C/C(C)=C/C(=O)O)OC(=O)CCC(=O)O)CC[C@]2(CC[C@H](C)[C@@H](C/C=C(C)/C=C/[C@H](O)[C@@H](C)/C=C/C(=O)O)O2)O1 [REVEROMYCIN B],< 1510 nM,< 20%,<20%,–,–,–,–,–,–,–,–,–
